{"source": "patent US6569846B1", "about": "“Palladium-substituted bacteriochlorophyll derivatives and use thereof” (Yeda Research and Development Co. Ltd., priority 1998, dated 2003)", "key": {"[1]": {"tested_on": "RIF-1 fibrosarcoma", "assay": "In vivo PDT of RIF-1 fibrosarcoma", "set-up": "key to Summary (cures), symbol: −: no response", "method": "Photodynamic therapy parameters: Mice with tumors measuring 5-7 mm in diameter were entered into PDT experiments. Three Pd-BPheid drug doses (1, 5 and 10 mg/kg) and two light doses (100 and 300 Joules/sq.cm) were evaluated. A formulation of Pd-BPheid dissolved in Cremophor was administered by i.v. tail injection. PDT light exposure was started either 15 minutes, 1 hour or 4 hours following injection. […] A titanium sapphire laser tuned to 757 nm was used as the light source for PDT. Laser generated light was coupled into quartz fibers for delivery of light to tumors. A light power density of 75 mW/sq.cm was used. Tumor size was measured 3 days per week following PDT treatments and the percentage of tumor cures (defined as no tumor recurrence for 40 days post treatment) was determined.\nIn vivo PDT Response: Tables 4 and 5 hereinafter provide summaries of the PDT treatment results for C3H mice transplanted with either the BA mammary carcinoma or the RIF-1 fibrosarcoma. Each table indicates the following parameters: 1) intravenous drug dose expressed in mg/kg; 2) laser treatment parameters, including the total light dose (J/cm^2), the wavelength (757 nm), the light dose rate (mW/cm^2), and the time interval ([…], 4) toxicity (four mice died shortly after treatment), 5) tumor regrowth (consisting of the number of days between PDT treatment and tumor recurrence) and 6) the number of mice (and percentage) with Pd-BPheid PDT induced tumor cures."}, "[2]": {"tested_on": "L1210 murine leukemia cells", "assay": "In vitro phototoxicity on L1210 cells (MTT)", "format": "cell-based", "conditions": "1 μM, 30 min at 37° C.", "method": "(i) Cell lines. The murine leukemia cell line (L1210) was maintained in suspension culture using Fischer's medium supplemented with 10% horse serum, 1 mM glutamine, 1 mM mercaptoethanol and gentamicin. The RIF (Radiation induced Fibrosarcoma) tumor was maintained as specified by Twentyman et al. (1980, “A new mouse tumor model system (RIF-1) for comparison of end-point studies”, J. Natl. Cancer Inst., 64, 595-604). Cultures were grown in Weymouth's medium containing 10% fetal calf serum and gentamycin.\n(ii) In vitro phototoxicity. For studies on phototoxicity involving L1210 and RIF cells, light was provided by a 600 watt quartz-halogen source filtered with 10 cm of water and a 850 nm cut-off filter to remove IR. […] […] The cells were then washed free from the sensitizer, and transferred to fresh media. Irradiations were carried out at 10° C. For some studies, the cells were then labeled with fluorescent probes and sites of photodamage were assessed. In other studies, the cells were then incubated for 60 min at 37° C. in fresh medium to allow apoptosis to proceed. Viability studies were carried out using 96-well plates and a 72-hour MTT assay, in quadruplicate.\n(iii) Cell Viability. Cell survival was assessed by the MTT reaction carried out 3 days after plating of 1,000-50,000 cells in 96 well plates. […] Absorbance at x nm was determined with a BioRad Plate reader. […]"}, "[3]": {"conditions": "1 mg/Kg i.v., 300 J/cm^2, 757 nm, 75 mW/cm^2, 15 min. interval"}, "[4]": {"conditions": "5 mg/Kg i.v., 300 J/cm^2, 757 nm, 75 mW/cm^2, 1 HR. interval"}, "[5]": {"conditions": "5 mg/Kg i.v., 300 J/cm^2, 757 nm, 75 mW/cm^2, 15 min. interval"}, "[6]": {"conditions": "10 mg/Kg i.v., 100 J/cm^2, 757 nm, 75 mW/cm^2, 1 HR interval"}, "[7]": {"conditions": "10 mg/Kg i.v., 100 J/cm^2, 757 nm, 75 mW/cm^2, 15 min. interval"}, "[8]": {"conditions": "10 mg/Kg i.v., 300 J/cm^2, 757 nm, 75 mW/cm^2, 1 HR interval"}, "[9]": {"conditions": "10 mg/Kg i.v., 300 J/cm^2, 757 nm, 75 mW/cm^2, 4 HR interval"}, "[10]": {"conditions": "10 mg/Kg i.v., 300 J/cm^2, 757 nm, 75 mW/cm^2, 15 min. interval"}}, "note": "Several values for one entry are separate records, joined by “and”; a condition that tells them apart may be missing. Equal values may be shown once.", "data": [{"molecule": "CC[C@H]1C2=NC(=Cc3c(C(C)=O)c(C)c4[n]3[Pd][n]3c(c(C)c5c3=C(C3=NC(=C4)[C@@H](C)[C@@H]3CCC(=O)O)[C@@H](C(=O)OC)C5=O)=C2)[C@@H]1C", "note": "[Pd-BPheid, Pd-bacteriopheophorbide a]", "values": [{"measurement": "Number of Animals with Primary Tumor Regrowth (Days to Recurrence)", "setting": "[1]; [3]", "value": "2(1 day)"}, {"measurement": "Summary (cures), symbol", "setting": "[1]; [3]", "value": "−"}, {"measurement": "Toxicity (Treatment associated death)", "setting": "[1]; [3]", "value": 0}, {"measurement": "Number of Animals with Primary Tumor Regrowth (Days to Recurrence)", "setting": "[1]; [4]", "value": "1(4 days) and 1(2 days) and 1(7 days)"}, {"measurement": "Toxicity (Treatment associated death)", "setting": "[1]; [4]", "value": 0}, {"measurement": "Number of Animals with Primary Tumor Regrowth (Days to Recurrence)", "setting": "[1]; [5]", "value": "1(5 days) and 1(12 days)"}, {"measurement": "Summary (cures) %", "setting": "[1]; [5]", "value": 33.33, "unit": "%"}, {"measurement": "Summary (cures), number of animals (days)", "setting": "[1]; [5]", "value": "1(40 days)"}, {"measurement": "Toxicity (Treatment associated death)", "setting": "[1]; [5]", "value": 0}, {"measurement": "Number of Animals with Primary Tumor Regrowth (Days to Recurrence)", "setting": "[1]; [6]", "value": "2(3 days) and 1(6 days)"}, {"measurement": "Toxicity (Treatment associated death)", "setting": "[1]; [6]", "value": 0}, {"measurement": "Number of Animals with Primary Tumor Regrowth (Days to Recurrence)", "setting": "[1]; [7]", "value": "2(12 days) and 1(7 days)"}, {"measurement": "Toxicity (Treatment associated death)", "setting": "[1]; [7]", "value": 0}, {"measurement": "Number of Animals with Primary Tumor Regrowth (Days to Recurrence)", "setting": "[1]; [8]", "value": "1(20 days)"}, {"measurement": "Summary (cures) %", "setting": "[1]; [8]", "value": 25.00, "unit": "%"}, {"measurement": "Summary (cures), number of animals (days)", "setting": "[1]; [8]", "value": "1(40 days)"}, {"measurement": "Toxicity (Treatment associated death)", "setting": "[1]; [8]", "value": 2}, {"measurement": "Toxicity (Treatment associated death), number of animals (day)", "setting": "[1]; [8]", "value": "2(1 day)"}, {"measurement": "Summary (cures), symbol", "setting": "[1]; [9]", "value": "−"}, {"measurement": "Toxicity (Treatment associated death)", "setting": "[1]; [9]", "value": 0}, {"measurement": "Summary (cures) %", "setting": "[1]; [10]", "value": 33.33, "unit": "%"}, {"measurement": "Toxicity (Treatment associated death)", "setting": "[1]; [10]", "value": 2}, {"measurement": "Toxicity (Treatment associated death), number of animals (day)", "setting": "[1]; [10]", "value": "2(1 day)"}, {"measurement": "effectiveness of PDT", "setting": "[1]; 4-hour interval between drug administration and light treatment", "value": "not effective"}, {"measurement": "effectiveness of PDT", "setting": "[1]; light treatments initiated within 1 hour of drug administration", "value": "effective"}, {"measurement": "cell killing", "setting": "[2]; 75 mJ/cm^2 light at 760±5 nm", "value": 50, "unit": "%"}, {"measurement": "dose of light resulting in 50% cell killing", "setting": "[2]; light at 760±5 nm", "value": 75, "unit": "mJ/cm^2"}]}]}
